For 98 compounds, cytotoxicity results are on record in ChEMBL document CHEMBL3507680, “University of Dundee, Gates Library screen for HepG2 cell viability”.

Each structure is given as a SMILES string.

The data set is described as follows: Human HepG2 cell viability assay in 384 well format. It counts as toxicity, cell-based. On the set-up: dose 125 nL, time 70.5 hour; cytotoxicity at 70.5 h: concentration not given beside the values. Particulars: HepG2 cells, read-out: Inhibition.
On to `O=C(C1CCS(=O)(=O)CC1)N1CCC(c2ccc(F)cc2)C1` (stereo not drawn), for which the cytotoxicity at 70.5 h is 4.45%.

As for `CC(=O)c1cnc(NCCCN2CCOCC2)nc1C`, the cytotoxicity at 70.5 h stood at 14.7%.

For `Cc1cc(NC2CCN(CC3CCCO3)CC2)n2nc(C)c(C)c2n1` (stereo not drawn), the cytotoxicity at 70.5 h was 4.66%.

Take `CC(C)CN(Cc1ccc(-n2cncn2)cc1)Cc1ccccn1`: the cytotoxicity at 70.5 h is -10.8%.

In the case of `CSCCC(=O)NCc1cc2n(n1)CCCN(C1CCCCC1)C2`, the cytotoxicity at 70.5 h is 34.5%.

With `Cc1n[nH]c(C)c1Sc1ccccc1NC(=O)N1CCOCC(O)C1` (stereo not drawn), the cytotoxicity at 70.5 h was 2.32%.

Take `CN(Cc1cccc(CCN)c1)Cc1cccc2ncccc12`: the cytotoxicity at 70.5 h is -16.2%.

In the case of `CC(C)(O)CCc1cccc(C(=O)N2CCC[C@H]2C(N)=O)c1`, the cytotoxicity at 70.5 h was 29.2%.

With `COCC[C@]1(O)CCN(c2ncc(Cl)cc2F)C[C@H]1C`, the cytotoxicity at 70.5 h is -12.3%.

Consider `O[C@@]1(CNCCCNc2cccnc2)CCCN2CCCC[C@@H]21`, for which the cytotoxicity at 70.5 h is -5.62%.

Regarding `COC1CCN(S(=O)(=O)N2CCCC(c3cccc(C(=O)O)c3)C2)CC1` (stereo not drawn), the cytotoxicity at 70.5 h is -9.91%.

For `COc1ncc(-c2ccc(C(N)=O)cc2)c(OC)n1`, the cytotoxicity at 70.5 h is -8.59%.

As for `CCN1CCc2[nH]cnc2C12CCN(C(=O)CCc1cccs1)CC2`, the cytotoxicity at 70.5 h turned out to be 6.97%.

Turning to `COCc1nc(N(C)CCSc2ccccc2)c2cnn(C)c2n1`, the cytotoxicity at 70.5 h is -5.78%.

For `Cc1ccc(CN(CCN(C)C)Cc2ncc[nH]2)s1`, the cytotoxicity at 70.5 h was -5.13%.

With `O[C@H]1CCCC[C@@H]1N1CCN(CCCc2ccc3c(c2)OCO3)CC1`, the cytotoxicity at 70.5 h is -6.44%.

For the compound `COc1c(F)cc(CN2CCC3(CC2)CN(C)C(=O)O3)cc1Cl`, the cytotoxicity at 70.5 h is -7.54%.

In the case of `Cc1nc(N2CCC(C(O)c3nccn3C)CC2)c2cccnc2n1` (stereo not drawn), the cytotoxicity at 70.5 h worked out at 18.9%.

Turning to `COCCN1CCCC(O)(CN2CCN(c3ccncc3C)CC2)C1=O` (stereo not drawn), the cytotoxicity at 70.5 h amounted to 5.87%.

`CCOC(=O)N1CCC(N2Cc3ncccc3C2=O)CC1`: the cytotoxicity at 70.5 h is 3.24%.

`CN(CCn1ccc2ccccc21)C(=O)Cc1nnn[nH]1`: the cytotoxicity at 70.5 h came to 17.9%.

With `O=C1CC(NCc2cnc(-c3cccs3)nc2)CN1c1ccccc1` (stereo not drawn), the cytotoxicity at 70.5 h was -2.68%.

Consider `CCN(Cc1nc(C)no1)C(=O)C1CC(=O)N(Cc2cccnc2)C1` (stereo not drawn), for which the cytotoxicity at 70.5 h was 17.6%.

For the compound `COc1cccc(CN2CCN(c3noc(C(C)C)n3)CC2)c1F`, the cytotoxicity at 70.5 h was found to be 1.87%.

For the compound `CCOc1ncccc1Cn1cc(-c2nccn2C)nn1`, the cytotoxicity at 70.5 h was -10.3%.

Consider `O=C1CCC(C(=O)N2CCOC(Cc3ccccc3Cl)C2)=NN1` (stereo not drawn), for which the cytotoxicity at 70.5 h was -8.63%.

Consider `c1c(-c2nc(CN3CCOCC3)no2)nnn1CC1CCCCC1`, for which the cytotoxicity at 70.5 h was -13.5%.

On to `CCn1nc(CC(C)C)cc1C(=O)NCCS(=O)(=O)N(C)C`, for which the cytotoxicity at 70.5 h was determined as 3.89%.

Regarding `CC(=O)NCCCc1ncnn1-c1cccc(Cl)c1`, the cytotoxicity at 70.5 h is 1.57%.

Take `CN(C)C(=O)N1CCN(C(=O)Nc2nc(-c3ccccc3)ns2)CC1`: the cytotoxicity at 70.5 h was -5.92%.

Consider `COCCCN1C(=O)CC[C@H]2CN(Cc3ccc4nonc4c3)CC[C@H]21`, for which the cytotoxicity at 70.5 h was -5.42%.

On to `CC(C)=CCN1C[C@H]2CC[C@@H]1CN(C(=O)Cc1c(C)nc(C)[nH]c1=O)C2`, for which the cytotoxicity at 70.5 h was found to be 1.03%.

Consider `CN(C)c1cnn(CC(=O)N2Cc3ccccc3C2)c(=O)c1`, for which the cytotoxicity at 70.5 h was found to be 22%.

With `O=C1C[C@H]2CC[C@@H](CN1)N2C1CCOCC1`, the cytotoxicity at 70.5 h is -1.49%.

As for `O=c1[nH]ccc2cc(-c3cc(O)cc(CCC4CCCCN4)c3)ccc12` (stereo not drawn), the cytotoxicity at 70.5 h was -7.29%.

As for `Cc1sc2nc(CCN)nc(N(CCN(C)C)CC3CCCO3)c2c1C` (stereo not drawn), the cytotoxicity at 70.5 h worked out at 5.16%.

For the compound `Cc1noc(C(C)N(C)CC(=O)NCCc2ccc(Cl)cc2)n1` (stereo not drawn), the cytotoxicity at 70.5 h turned out to be 24.6%.

`CC(=O)NCc1cc2n(n1)CCN(Cc1ccccc1OC(F)(F)F)C2`: the cytotoxicity at 70.5 h is -3.35%.

Take `COc1cc(C(=O)NCCS(=O)(=O)N(C)C)c2ccccc2n1`: the cytotoxicity at 70.5 h was determined as 1.37%.

Turning to `CC1(C)CC(CC(=O)N2CC(C)(C)[C@@](C)(O)C2)CC(C)(C)N1`, the cytotoxicity at 70.5 h came out at 13%.

Take `Cc1ccccc1Oc1ncccc1CNS(=O)(=O)N(C)C`: the cytotoxicity at 70.5 h is -1.73%.

With `Cc1nnsc1CNC(=O)CSCc1ccccc1Cl`, the cytotoxicity at 70.5 h is -7.02%.

Consider `CN1CC2(CCN(Cc3cc(Cl)ccc3OCC(=O)O)CC2)OC1=O`, for which the cytotoxicity at 70.5 h is -8.9%.

For the compound `Cc1c(Cl)cc(C(=O)N(CCO)Cc2nccn2C)cc1Cl`, the cytotoxicity at 70.5 h is -0.75%.

Consider `CC1(C)Cc2c(cnn2-c2ccccc2)C(NC2CCSCC2)C1` (stereo not drawn), for which the cytotoxicity at 70.5 h is -5.66%.

Take `Cc1nccc(-c2ccccc2)c1C(=O)N1CCC2(CCCO2)CC1`: the cytotoxicity at 70.5 h worked out at 2.47%.

In the case of `Cc1cc(C)cc(CCC(=O)N2CCN(c3cc(C)nc(N)n3)CC2)c1`, the cytotoxicity at 70.5 h amounted to 6.95%.

Take `CC(C)(C)c1ccn(C2(C(=O)O)CCN(c3ncccc3C#N)CC2)n1`: the cytotoxicity at 70.5 h was -2.37%.

In the case of `COCCN(Cc1ccncc1)C(=O)C1COc2ccccc2C1` (stereo not drawn), the cytotoxicity at 70.5 h is -6.32%.

For the compound `CC(=O)N[C@@H]1CN(C(=O)c2cc3sccc3[nH]2)C[C@H]1c1ccc(C)o1`, the cytotoxicity at 70.5 h is -3.33%.

Turning to `Cc1cnccc1Cn1ccnc1C1CCOC1` (stereo not drawn), the cytotoxicity at 70.5 h is -7.66%.

For the compound `COCCN(C)[C@@H]1c2ccccc2C2(CCNCC2)[C@H]1O`, the cytotoxicity at 70.5 h is -4.67%.

Regarding `CCc1n[nH]c(C(=O)NCCn2ccnc2C)c1C`, the cytotoxicity at 70.5 h was -5.75%.

`c1ccc(C2CN(C3CC3)CC3(CCN(Cc4ncc[nH]4)CC3)C2)cc1` (stereo not drawn): the cytotoxicity at 70.5 h was -6.48%.

For the compound `CC1(C)CNC(=O)c2nc(CCN3CCCCC3CO)[nH]c2C1` (stereo not drawn), the cytotoxicity at 70.5 h worked out at 4.33%.

As for `COc1ccc(CN2CCC=C(C(C)NC(C)=O)C2)cc1` (stereo not drawn), the cytotoxicity at 70.5 h was -10.1%.

Consider `COCCCC1CCCCN1Cc1cc(F)ccc1-n1cccn1` (stereo not drawn), for which the cytotoxicity at 70.5 h is 9.72%.

As to `Cc1nc(CN2CC(=O)N(C)c3ccccc3C2=O)no1`, the cytotoxicity at 70.5 h is -1.75%.

Take `CC(=O)N1C[C@H](NS(=O)(=O)N2CCOCC2)[C@@H](c2ccc(C)o2)C1`: the cytotoxicity at 70.5 h was -7.85%.

As to `COc1ccc(CN(Cc2ccsc2)CC2CCCO2)cn1` (stereo not drawn), the cytotoxicity at 70.5 h was -2.5%.

`COc1ccccc1OC1CN(C(=O)C(c2ccc(F)cc2)N(C)C)C1` (stereo not drawn): the cytotoxicity at 70.5 h was -1.1%.

Consider `NCC1CN(c2nc(-c3cccnc3)nc3c2CCNCC3)CCO1` (stereo not drawn), for which the cytotoxicity at 70.5 h was 26.4%.

Consider `NC(=O)NCC(=O)N1CCC(c2cc(-c3ccccc3Cl)n[nH]2)CC1`, for which the cytotoxicity at 70.5 h was -4.95%.

With `CSCCNC(=O)c1coc(COc2ccc3sc(C)nc3c2)n1`, the cytotoxicity at 70.5 h is -13.9%.

On to `c1ccc2c(c1)ccn2CCCNC1CCOC2(CCOCC2)C1` (stereo not drawn), for which the cytotoxicity at 70.5 h was 32.9%.

As to `COCCCN1C(=O)CC[C@H]2CN(Cc3ncc[nH]3)CC[C@H]21`, the cytotoxicity at 70.5 h turned out to be 8.43%.

`Cn1cc(C(=O)N2CC[C@@]3(O)CCN(C(=O)C4CCC4)C[C@H]3C2)cn1`: the cytotoxicity at 70.5 h is 3.54%.

For the compound `CC(C)c1noc(-c2ccc(NCCCC3CCOC3)nc2)n1` (stereo not drawn), the cytotoxicity at 70.5 h is -0.0541%.

Turning to `Cc1cc(N2CCC(n3cc(CN4CCC[C@@H]4CO)nn3)CC2)ccn1`, the cytotoxicity at 70.5 h was -8.62%.

Turning to `Cn1ccnc1CN1CCC(Cn2cc(-c3ccncc3)nn2)CC1`, the cytotoxicity at 70.5 h is 3.24%.

Regarding `O=C(NC1CCCCC1)[C@H]1CNC[C@@H](COc2cccnc2)C1`, the cytotoxicity at 70.5 h was -3.95%.

As to `Cc1ccc(-c2cc(CNc3ncnc4c3CCNCC4)no2)cc1`, the cytotoxicity at 70.5 h was 1.89%.

On to `CSc1ccccc1CCC1CCS(=O)(=O)C1` (stereo not drawn), for which the cytotoxicity at 70.5 h is -1.45%.

Turning to `O=C(c1ccc(Cl)cc1F)N1CCC(Cn2cc(CO)nn2)CC1`, the cytotoxicity at 70.5 h is -5.57%.

In the case of `O=C(CCn1ccc2ncccc2c1=O)N1CCCC1`, the cytotoxicity at 70.5 h was found to be 0.26%.

Consider `COc1c(F)cccc1C(=O)N(C)Cc1nc(-c2ccccn2)no1`, for which the cytotoxicity at 70.5 h is -6.48%.

In the case of `O=C1CCC2(CCCN(CCn3cc(Cl)cn3)C2)CN1C1CCCC1` (stereo not drawn), the cytotoxicity at 70.5 h is -19.7%.

Consider `CCN(Cc1ccncc1)C1CCCN(Cc2ccc(F)cc2OC)C1` (stereo not drawn), for which the cytotoxicity at 70.5 h is -1.99%.

`Cc1nc(CNC2CC(=O)N(CCc3cccc(Cl)c3)C2)c[nH]1` (stereo not drawn): the cytotoxicity at 70.5 h was -5.42%.

Regarding `CCn1c(CC2CCN(C(=O)c3cc(CC(C)C)on3)CC2)n[nH]c1=O`, the cytotoxicity at 70.5 h was -2.52%.

Regarding `CC(=O)N1CCCN(C(C(=O)O)c2ccc(C)cc2C)CC1` (stereo not drawn), the cytotoxicity at 70.5 h is -10.9%.

With `Cc1cc(C(=O)NCCCn2nccc2C2CC2)c(=O)[nH]c1C`, the cytotoxicity at 70.5 h was -14.7%.

Regarding `CCCOCCn1ncc(N2CCc3ccccc3C2)cc1=O`, the cytotoxicity at 70.5 h was -1.9%.

For the compound `COc1ccc(C(=O)N2CCC(Oc3ccc(C)cc3)(C(=O)O)CC2)o1`, the cytotoxicity at 70.5 h is 0.709%.

Consider `CC(c1cccc(-c2ncccc2C#N)c1)N(C)C` (stereo not drawn), for which the cytotoxicity at 70.5 h was -15.1%.

For the compound `O=C(CCC1CCN(C2Cc3ccccc3C2)CC1)NCC1CCCO1` (stereo not drawn), the cytotoxicity at 70.5 h was 25.6%.

Take `Cc1cnc(C)c(N2CCC(Cc3ccccc3Cl)(C(=O)O)CC2)n1`: the cytotoxicity at 70.5 h is -8.45%.

For `CCn1cc(C(=O)NCCN2CCCc3ccccc32)c(C)n1`, the cytotoxicity at 70.5 h was -0.0816%.

With `CNc1cc(C(=O)NCCC2=CSC3=NCCCN23)ccn1`, the cytotoxicity at 70.5 h was determined as 1.26%.

For `CC(C)c1nc(CN(C)C(=O)c2ccc3c(c2)OCO3)cs1`, the cytotoxicity at 70.5 h is -9.84%.

Turning to `CCNC(=O)[C@@H]1C[C@H](NC(=O)c2cc(CC)n[nH]2)CN1Cc1ccsc1`, the cytotoxicity at 70.5 h was -6.78%.

With `Cc1cc(C)n(CCN(C)c2ccc(-c3nc(C4CC4)no3)cn2)n1`, the cytotoxicity at 70.5 h is 10.5%.

In the case of `Clc1ccccc1CCn1ccnc1-c1cn(C2CCNCC2)nn1`, the cytotoxicity at 70.5 h was -8.18%.

As to `Cc1ccc2c(c1)SCC(=O)N2Cc1noc(C2CC2)n1`, the cytotoxicity at 70.5 h stood at 16.3%.

As for `CNC(=O)C1CCCN1c1nc(C)c2ccccc2n1` (stereo not drawn), the cytotoxicity at 70.5 h was -16.3%.

`Cc1ccc(C(=O)N2CCCC(Nc3ccc(F)cc3)C2)cc1` (stereo not drawn): the cytotoxicity at 70.5 h was -1.63%.

Regarding `CN(CCn1ccc2ccccc21)C(=O)CS(C)(=O)=O`, the cytotoxicity at 70.5 h is 18%.

In the case of `COCC[C@]1(O)CCN(Cc2nnc(C)s2)C[C@H]1C`, the cytotoxicity at 70.5 h is -9.14%.
